The numbers were not newly measured in patent US6121280A, “Azabicyclic rotomase inhibitors” (Pfizer Inc., priority 1999, dated 2000), which cites them from elsewhere.

This data set concerns neuronal cell line and culture models. As to conditions: Lyons et al. 1994, Snyder et al. 1995.

For `C=CC[C@@H]1/C=C(\C)C[C@H](C)C[C@H](OC)[C@H]2O[C@@](O)(C(=O)C(=O)N3CCCC[C@H]3C(=O)O[C@H](/C(C)=C/[C@@H]3CC[C@@H](O)[C@H](OC)C3)[C@H](C)[C@@H](O)CC1=O)[C@H](C)C[C@@H]2OC` [FK-506], the “neurite outgrowth in vitro” value was “promoted neurite outgrowth”.
